We go through two compounds from patent US20230405003A1, “APPLICATION OF THYMIDINE DERIVATIVE IN PREPARATION OF DRUGS” (ONQUALITY PHARMACEUTICALS CHINA LTD., priority 2020, published 2023).

The subject of one series is HaCaT cells. The series can be described thus: Relief of 5-FU proliferative toxicity to HaCaT cells (CCK-8 cell survival). The class given is cell-based. Particulars: for Cell Survival Rate (increased percentage of cell survival compared with the Group of 5-FU): 5-Fu 20 μM, HaCaT cells. How it is done:
The cultured skin cell HaCaTs were digested, counted, and inoculated into a 96-well plate with 5000-10000 cells in each well. After 24 h of culture, the wells were divided into Group of blank solvent control, Group of 5-FU, Group of 5-FU+thymidine derivative, Group of 5-FU+the combination of thymidine derivative and uridine derivative. […] adding a solution of 5-FU and a solution of thymidine derivative (the final concentrations of 5-FU and thymidine derivative are shown in Table 3, the solution of thymidine is an aqueous solution, while the solutions of thymidine derivatives are all DMSO solutions); Group of 5-FU+the combination of thymidine derivative and uridine derivative: adding a solution of 5-FU and a mixed solution of thymidine derivative and uridine derivative (the final concentrations of the solution of 5-FU and the mixed solution of thymidine derivative+uridine derivative are shown in Table 3, the solution of thymidine is an aqueous solution, while the mixed solutions of thymidine derivative+uridine derivative are all DMSO solutions); Group of blank solvent control: adding the same type of solution as those of the corresponding Group of 5-FU or Group of 5-FU+thymidine derivative (or the mixed solution of thymidine derivative+uridine derivative) in equal volume. Group of blank solvent control was used as control to exclude the influence of the solvents in Group of 5-FU and Group of 5-FU+thymidine derivative (or the mixed solution of thymidine derivative+uridine derivative) on the results. After additional 48 hours of culture, a Cell Counting Kit-8 (CCK-8) detection kit (C0037, purchased from Shanghai Beyotime Biotechnology) is used to determine the cell survival rate, thereby calculating the proliferative toxicity of 5-Fu/5-DFUR on cells and the relieving effect of the thymidine derivative (or the mixed solution of thymidine derivative+uridine derivative) on the proliferative toxicity. Using GraphPad Prism 6.0 software, the results were statistically analyzed by t-test and plotted.
Table 3 lists the combinations of 5-FU and thymidine derivative (or the mixed solution of thymidine derivative+uridine derivative), and the corresponding experimental results (wherein the data in the column of cell survival indicate the corresponding increased percentage of the cell survivals of Group of 5-FU+thymidine derivative or Group of 5-FU+the combination of thymidine derivative and uridine derivative compared with the Group of 5-FU). FIGS. 3-10 list the experimental results of several representative compounds.
The effect of thymidine derivative or a combination of thymidine derivative and uridine derivative on relieving the proliferative toxicity of a chemotherapeutical drug (5-FU) to HaCaT cells was tested according to the method in Examples 2-29. The test thymidine derivative or the combination of thymidine derivative and uridine derivative, as well as the final concentration of the test compounds were shown in Table 7.
Table 7 lists the combinations of 5-FU and thymidine derivative (or the mixed solution of thymidine derivative+uridine derivative), and the corresponding experimental results (wherein the data in the column of cell survival indicate the corresponding increased percentage of the cell survivals of Group of 5-FU+thymidine derivative or Group of 5-FU+the combination of thymidine derivative and uridine derivative compared with the Group of 5-FU). FIGS. 15-21 list the experimental results of several exemplary compounds.

For series [1], the system named is hand-foot syndrome caused by capecitabine in SD rats. Briefly: Rat model of hand-foot syndrome caused by capecitabine, gel application. The class given is in vivo. Particulars: capecitabine 4000 mg/kg once daily, 40 days; for Control Rate Forepaws / Control Rate Hindpaws: rats. How it is done:
A rat animal model was established. 6-week aged female SD rats were administered with capecitabine by daily gavage. The degree of hand-foot syndrome in paws is similar, and there was no difference between the left and right paws. Similar to the human body, rats developed hand-foot syndrome after oral administration of capecitabine. The causes of the two are the same, and the disorder is also very similar. Therefore, rats are very good animal models for simulating the hand-foot syndrome caused by capecitabine.
After SD rats were fed and adapted for one week (about 200 g), the rats were divided into groups, with 10 rats in each group. Then, the rats were subject to gavage administration. Capecitabine was dissolved in a 1:1 mixed solution of castor oil and ethanol and diluted for three times with PBS buffer. After gavage, the rats were fixed with a fixed cylinder, and a gel of thymidine derivative (or a compounded gel of thymidine derivative and uridine derivative) was applied to double hind paws (about 1 cm*3 cm) of the rats in group of administration (the types and concentrations are shown in Table 4), and a blank gel was applied to the group of blank (as a blank control). After approximately 4 hours of application, the rats were released after 4 hours, wiped with clean water to remove any residual drug at the application site, and allowed back to the cage. The thymidine derivative gel (or the compounded gel of thymidine derivative and uridine derivative) was administered with gavage every day. The gavage and application tests are repeated daily until the group of blank has developed obvious hand-foot syndrome.
Table 4 lists the combinations of animal experiments of capecitabine and the thymidine derivative gel (or the compounded gel of thymidine derivative and uridine derivative) and the corresponding experimental results (wherein, the data in the column of control rate=the occurrence rate of hand-foot syndrome in group of blank—the occurrence rate of hand-foot syndrome in group of administration). […]

As to `CCC(=O)OC[C@H]1O[C@@H](n2cc(C)c(=O)[nH]c2=O)C[C@@H]1OC(=O)CC` [T5], the activation at 1 µM in the series with HaCaT cells (Homo sapiens, HaCaT, increase vs Group of 5-FU, 5-FU 20 μM, compound 1 μM, 48 h, read-out: Cell Survival Rate) was 18 to 24%. In the series on HaCaT cells (Homo sapiens, HaCaT, increase vs Group of 5-FU, 5-FU 20 μM, compound 10 μM, 48 h, read-out: Cell Survival Rate), the activation at 10 µM fell in the range of 55 to 65%. In addition, in the series with HaCaT cells (Homo sapiens, HaCaT, increase vs Group of 5-FU, 5-FU 20 μM, compound 100 μM, 48 h, read-out: Cell Survival Rate), the activation at 100 µM lay within 77 to 84%. In addition, the activation at 500 µM in the series on HaCaT cells (Homo sapiens, HaCaT, increase vs Group of 5-FU, 5-FU 20 μM, compound 500 μM, 48 h, read-out: Cell Survival Rate) lay within 78 to 85%. Also, the activation at 1000 µM in the series on HaCaT cells (Homo sapiens, HaCaT, increase vs Group of 5-FU, 5-FU 20 μM, compound 1000 μM, 48 h, read-out: Cell Survival Rate) is 35 to 45%. The “Control Rate” value in series [1] (SD rats, gel 2 wt% on hind paws) was 30.00%.

Consider `Cc1ccc(Nc2c(F)cccc2Cl)c(CC(=O)OC[C@H]2O[C@@H](n3cc(C)c(=O)[nH]c3=O)C[C@@H]2O)c1` [T35], for which the “Cell Survival Rate (increased percentage of cell survival compared with the Group of 5-FU)” value is 23%-31% in the series on HaCaT cells (selected compound final concentration 0.8 μM); 25%-33% with HaCaT cells (selected compound final concentration 1.6 μM); 42%-48% with HaCaT cells (selected compound final concentration 3.13 μM); 64%-70% with HaCaT cells (selected compound final concentration 6.25 μM); 95%-101% in the series on HaCaT cells (selected compound final concentration 12.5 μM); 84%-91% with HaCaT cells (selected compound final concentration 25 μM). The “Cell Survival Rate (increased percentage of cell survival compared with the Group of 5-FU)” value with HaCaT cells (selected compound final concentration 50 μM) was 85%-92%; in the series with HaCaT cells (selected compound final concentration 100 μM), 39%-47%. In addition, the “Control Rate Forepaws” value is 25% in series [1] (gel 1 wt%) and 75.00% in series [1] (gel 5 wt%). The “Control Rate Hindpaws” value in series [1] (gel 1 wt%) was found to be 37.50%; in series [1] (gel 5 wt%), 88%.
